The text below walks through data of article PMC3880013, “Toward an Understanding of Agonist Binding to Human Orexin-1 and Orexin-2 Receptors with G-Protein-Coupled Receptor Modeling and Site-Directed Mutagenesis” (Biochemistry, 2013).

Marks after values point to notes of the source that are not given here.

What all share (assay): Calcium flux assay, CHO-K1 cells stably expressing Orexin receptor mutant
Common to all, as to format: cell-based, human

One experiment deals with hOX1 Q179A. The settings on record: hOX1 Q179A (4.60) vs wild type, CHO-K1, Fluo-4AM, this work. How it is done:
(§1) A combination of overlap and mismatch polymerase chain reaction (PCR) was used to introduce mutations into the corresponding Orexin-1 and Orexin-2 cDNAs as described by us previously.[62] Each mutation was made via the generation of two overlapping PCR fragments with PfuUltra II Fusion HS DNA Polymerase (Strategene). The two products were extracted, and a second round of PCR was performed via combination of both fragments with 5′ and 3′ gene specific primers (containing BamHI and NotI restriction sites, respectively). The resulting gel-purified products were then cloned into expression vector pFB-Neo for subsequent generation of stable cell lines. Constructs were confirmed via sequencing. Each verified cDNA was subsequently used to generate single, stably expressing clones in the CHO-K1 cell line.
(§2) Standard calcium flux assays were used to assess the functionality of each OX receptor mutant. Each CHO-K1 Orexin mutant was seeded into tissue culture-treated, 384-well, black clear-bottom plates (CellBind Corning 7086), at a density of 7500 cells/well in culture medium and maintained in an incubator (5% CO2 at 37 °C) overnight. The cell medium was removed, and the cells were incubated in 20 μL of assay buffer (4 μM Fluo-4AM in HBSS with 0.1% BSA) for 90 min at 37 °C. After incubation, the dye was removed and 45 μL of fresh buffer, without dye, was applied. Antagonists (5 μL) were applied, and after incubation for an additional 20 min at 37 °C, 20 μL of receptor specific agonists was applied and the calcium flux monitored using a Flex Station (Molecular Devices) over a period of 1 min. In all cases, the EC80 specific for the individual mutant as determined in previous experiments was reported.

The test system of the next experiment is hOX2 F227W. The settings on record: hOX2 F227W (5.42) relative to wild type, CHO-K1, Fluo-4AM, this work. The method, then: as §1, §2
A further experiment concerns hOX1 Y311F. The settings on record: hOX1 Y311F (6.48) relative to wild type, CHO-K1, Fluo-4AM, this work. The method, then: as §1, §2
The next experiment relates to hOX2 Q187A. To be noted: hOX2 Q187A (4.60) relative to wild type, CHO-K1, Fluo-4AM, this work. The method, then: as §1, §2
Another experiment concerns hOX2 Q134A. To be noted: hOX2 Q134A (3.32) relative to wild type, CHO-K1, Fluo-4AM, this work. The method, then: as §1, §2

As for Orexin-B, the “fold improvement in potency relative to wild type” value in the experiment on hOX1 Q179A turned out to be 72.2 fold improvement. For the same substance, the “ratio EC50(mut)/EC50(WT)” value is recorded as 75.0 ^d fold in the experiment on hOX2 F227W, 0.85 ^d fold in the experiment with hOX1 Y311F, 1.7 ^d fold with hOX2 Q187A and 5.1 ^d fold with hOX2 Q134A.
